Measurements published in patent US20200123422A1, “Photocurable Adhesive Sheet, Image Display Device Constituent Laminate, Image Display Device Production Method and Method for Preventing Corrosion of Conductive Member” (Mitsubishi Chemical Corporation, priority 2017, published 2020).
≈ marks a conversion by molar mass, not a printed value.

What was measured:
[1] = Absorption coefficient at a wavelength of 365 nm; format: physicochemical; conditions: at 365 nm
Description: The absorption coefficient can be determined by the following formula.
α365: absorption coefficient at a wavelength of 365 nm [mL/(g·cm)]
A365: absorbance at a wavelength of 365 nm
c: solution concentration [g/mL]
d: optical path length (of quartz cell) [cm]
In addition, when calculating the absorption coefficient, an absorbance converted from the measurement result of the transmittance may also be used.
T365: light transmittance at a wavelength of 365 nm [%]

Aqueous solubility = format: physicochemical
Protocol: From such a viewpoint, the metal corrosion inhibitor preferably has an aqueous solubility at 25° C. of 20 g/L or more, more preferably 50 g/L or more, particularly preferably 100 g/L or more.

For `c1c[nH]nn1` [Example D-1, 1,2,3-triazole], the absorption coefficient [1] was 0.3 mL/g/cm and the aqueous solubility (Aqueous solubility) was > 1,000 g/L.
With `c1nc[nH]n1` [Example D-2, 1,2,4-triazole] the absorption coefficient [1] was 0.3 mL/g/cm and the aqueous solubility (Aqueous solubility) was > 1,000 g/L.
In the case of `c1ccc2[nH]nnc2c1` [Example D-3, 1,2,3-benzotriazole], the absorption coefficient [1] is reported as 0.8 mL/g/cm and the aqueous solubility (Aqueous solubility) is reported as 20 g/L (≈ 168 mM).
With `Sc1nnc(S)s1` [Example D-4, 2,5-dimercapto-1,3,4-thiadiazole, reference compound] the absorption coefficient [1] was 90 mL/g/cm and the solubility (Aqueous solubility; water, 25 °C) was 20 mg/mL (≈ 133 mM).
In the case of `S=c1[nH]c2ccccc2s1` [Example D-5, mercaptobenzothiazole, reference compound], the absorption coefficient [1] is reported as 65 mL/g/cm and the aqueous solubility (Aqueous solubility) is reported as 0.3 g/L (≈ 1.79 mM).
